In ChEMBL document CHEMBL1201862, “PubChem BioAssay data set” (2004):
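How tested: cells in 96-well plates exposed to compound for 48 hours at five concentrations. GI50: concentration for 50% inhibition of growth.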 The source made the active and inactive calls. Cut-off read from the data, not from the text of the source: active = GI50 up to about 1.1 µM and inactive = higher.

Key:
Assay in all cases: NCI tumour cell line growth inhibition, 48 h
[1] = system: ACHN
[2] = system: COLO 205
[3] = system: HCC 2998
[4] = system: HOP-62
[5] = system: HT-29
[6] = system: IGROV-1
[7] = system: LOX IMVI
[8] = system: MOLT-4
[9] = system: NCI-H226
[10] = system: OVCAR-4
[11] = system: OVCAR-5
[12] = system: RXF 393
[13] = system: SF-539
[14] = system: SK-MEL-28
[15] = system: SN12C
[16] = system: SW-620
[17] = system: UACC-62
[18] = system: SK-OV-3

Measured: GI50

CC(C)CS(=O)(=O)/C(=C(\c1ccc(Br)cc1)S(=O)(=O)CC(C)C)c1ccc(Br)cc1
inactive: [1] > 100 µM | [2] > 100 µM | [3] > 100 µM | [4] > 100 µM | [5] > 100 µM | [6] 15.6 µM | [7] > 100 µM | [8] > 100 µM | [9] > 100 µM | [10] > 100 µM | [11] > 100 µM | [12] 90.2 µM | [13] > 100 µM | [14] > 100 µM | [15] > 100 µM | [16] > 100 µM | [17] > 100 µM

O=C(O)c1ccccc1[Se][Se]c1ccccc1C(=O)O
inactive: [1] > 100 µM | [2] > 100 µM | [3] 89.7 µM | [4] 29.7 µM | [5] 35.1 µM | [6] 51.6 µM | [7] 24.1 µM | [8] 43.8 µM | [9] 1.9 µM | [12] 38.3 µM | [13] 23.4 µM | [14] 38.1 µM | [18] 85.5 µM | [15] 53 µM | [16] > 100 µM | [17] 27.5 µM

COc1ccc2cc1Oc1ccc(cc1)CC1c3cc4c(cc3CCN1C)Oc1c(OC)cc3c(c1O4)C(C2)N(C)CC3 (stereo not drawn)
inactive: [1] 4.78 µM | [2] 1.43 µM | [3] 3.05 µM | [4] 12.6 µM | [5] 1.81 µM | [6] > 10 µM | [7] 1.46 µM | [8] 1.44 µM | [9] 1.72 µM | [10] 1.47 µM | [11] 13.6 µM | [12] 1.64 µM | [13] 2.13 µM | [14] 1.49 µM | [15] 1.94 µM | [16] 1.69 µM | [17] 3.21 µM

CCOC(=O)/C(I)=C/c1cc(OC)c(OC)c(OC)c1
inactive: [1] 7.14 µM | [2] 6.12 µM | [3] 14.2 µM | [4] 26.9 µM | [5] 4.55 µM | [6] 22.2 µM | [7] 1.75 µM | [8] 7.01 µM | [9] 4.69 µM | [10] 14.7 µM | [11] 6.52 µM | [13] 9.08 µM | [14] 1.41 µM | [18] 26.9 µM | [15] 4.62 µM | [16] 3.55 µM | [17] 4.5 µM

C1CN2CCO[SiH](O1)OCC2
inactive: [1] > 100 µM | [2] > 100 µM | [3] > 100 µM | [5] > 100 µM | [6] > 100 µM | [8] > 100 µM | [9] > 100 µM | [12] > 100 µM | [13] > 100 µM | [14] > 100 µM | [18] > 100 µM | [15] > 100 µM | [16] > 100 µM | [17] > 100 µM

O=c1[nH]c(=O)n(C2CC(O)C(CO)O2)cc1C#Cc1cc(F)cc(F)c1 (stereo not drawn)
inactive: [1] > 100 µM | [2] > 100 µM | [3] > 100 µM | [4] > 100 µM | [5] > 100 µM | [6] > 100 µM | [7] > 100 µM | [8] > 100 µM | [9] > 100 µM | [10] > 100 µM | [11] > 100 µM | [13] > 100 µM | [14] > 100 µM | [18] > 100 µM | [15] > 100 µM | [16] > 100 µM | [17] > 100 µM

COC(=O)c1nc(C(=O)OC)c2c([nH]c3ccccc32)c1C(=O)OC
inactive: [2] > 100 µM | [3] > 100 µM | [4] > 100 µM | [5] > 100 µM | [6] > 100 µM | [7] 58.5 µM | [8] 82.6 µM | [9] 37.7 µM | [10] > 10 µM | [11] > 100 µM | [12] 31.8 µM | [13] > 100 µM | [14] 88.9 µM | [15] > 100 µM | [16] > 100 µM | [17] 85.1 µM

COc1ccc(/C=C2\CCC(CCN(C)C)(C3=CCCC3)C2=O)cc1Br (stereo not drawn)
inactive: [1] 9.29 µM | [2] 1.58 µM | [3] 2.33 µM | [4] 14.5 µM | [5] 2.59 µM | [6] 4.54 µM | [7] 4.06 µM | [8] 2.7 µM | [9] 16.9 µM | [10] 3.68 µM | [11] 14 µM | [12] 2.22 µM | [13] 12.1 µM | [14] 2.76 µM | [15] 9.95 µM | [16] 7.66 µM

Cc1ccc(C(=O)/C=C/N2CCN(c3cccc(C(F)(F)F)c3)CC2)cc1
inactive: [1] 23.9 µM | [2] 24.3 µM | [3] 12.4 µM | [4] 20.7 µM | [5] 17.9 µM | [6] 16.3 µM | [8] 15.1 µM | [9] 16.9 µM | [10] 43.7 µM | [11] 21.4 µM | [12] 15.7 µM | [13] 15.9 µM | [14] 19.7 µM | [18] 35.1 µM | [15] 18.5 µM | [16] 20.6 µM | [17] 19.3 µM

CS(=O)(=O)c1c(N)c2nc(Cl)cn2c2nc3ccccc3nc12
inactive: [1] > 100 µM | [2] > 100 µM | [3] > 100 µM | [4] > 100 µM | [5] > 100 µM | [6] > 100 µM | [7] > 100 µM | [8] > 100 µM | [9] > 100 µM | [10] > 100 µM | [11] > 100 µM | [13] > 100 µM | [14] > 100 µM | [18] > 100 µM | [15] > 100 µM | [16] > 100 µM | [17] > 100 µM

O=C1N=C(Nc2ccccc2Cl)SC1C(=O)Nc1ccc([N+](=O)[O-])cc1[N+](=O)[O-] (stereo not drawn)
inactive: [1] > 100 µM | [2] > 100 µM | [3] > 100 µM | [4] > 100 µM | [5] > 100 µM | [6] > 100 µM | [8] > 100 µM | [9] 82.8 µM | [10] > 100 µM | [11] > 100 µM | [12] > 100 µM | [13] > 100 µM | [14] > 100 µM | [18] > 100 µM | [15] > 100 µM | [16] > 100 µM | [17] > 100 µM

COC(=O)[C@@]1(C)C(=O)CC[C@@H]1C=O
inactive: [1] > 100 µM | [2] > 100 µM | [4] > 100 µM | [5] > 100 µM | [6] > 100 µM | [7] > 100 µM | [8] > 100 µM | [9] > 100 µM | [10] > 100 µM | [11] > 100 µM | [13] > 100 µM | [18] > 100 µM | [15] > 100 µM | [16] > 100 µM | [17] > 100 µM

CCCCCC(/C=C/[C@@H]1[C@H]2CC(=O)O[C@H]2C[C@H]1N1CCOCC1)OC1CCCO1 (stereo partly drawn)
inactive: [1] > 100 µM | [2] > 100 µM | [3] > 100 µM | [4] > 100 µM | [5] > 100 µM | [6] > 100 µM | [7] > 100 µM | [8] > 100 µM | [9] > 100 µM | [10] > 100 µM | [11] > 100 µM | [12] > 100 µM | [13] > 100 µM | [14] > 100 µM | [18] > 100 µM | [16] > 100 µM | [17] > 100 µM

[O-][S+]1Cc2ccccc2CS1 (stereo not drawn)
inactive: [1] 18.8 µM | [2] 15.4 µM | [3] 29.7 µM | [5] 15.8 µM | [6] 68.2 µM | [7] 7.46 µM | [8] 15.4 µM | [9] 87.1 µM | [10] 16 µM | [11] 18.2 µM | [12] 15.9 µM | [13] 11.4 µM | [14] 14.9 µM | [18] 52.8 µM | [15] 14 µM | [16] 13.9 µM | [17] 13.2 µM

CC(=O)OCCOCNC(=S)N/N=C(\C)c1ccco1
inactive: [1] > 100 µM | [2] > 100 µM | [3] > 100 µM | [4] > 100 µM | [5] > 100 µM | [6] > 100 µM | [7] > 100 µM | [9] 64.6 µM | [10] > 100 µM | [11] > 100 µM | [12] > 100 µM | [13] > 100 µM | [14] > 100 µM | [18] > 100 µM | [15] > 100 µM | [16] > 100 µM | [17] > 100 µM

COc1ccc2[nH]c3c(c2c1)[C@H](C)C[C@@H]1C(=O)N(c2ccccc2)C(=O)[C@H]31
inactive: [1] 37.8 µM | [2] 51.3 µM | [3] 39.4 µM | [4] 24 µM | [6] 31.8 µM | [7] 25.2 µM | [8] 20.6 µM | [10] 20.7 µM | [11] 91.8 µM | [12] 29.6 µM | [13] 21.2 µM | [14] > 100 µM | [18] 20.5 µM | [15] 27.1 µM | [16] 32.4 µM | [17] 44.1 µM
